Molecules are shown by their SMILES. Where a name gives a salt, the structure may show the parent alone. Residues, ends and D or L forms follow the SMILES beside them. *: point of attachment. Farnesyl = CC(C)=CCC/C(C)=C/CC/C(C)=C/C*; Boc = CC(C)(C)OC(=O)*; CH2Cl = ClC*

These results are taken from patent US6251882A, “Alkyl ketones as potent anti-cancer agents” (Parker Hughes Institute, priority 1999, dated 2001).

The test system of one assay is Nalm-6 (B-lineage ALL). Kind of assay: MTT cytotoxicity assay, Nalm-6. The assay is classed as cell-based. The conditions noted are these: Homo sapiens, 24-36 hours at 37° C., 0.1 to 250 μM. How it is done:
(§1) Cytotoxicity of various compounds against tumor cells was performed using the MTT (3-[4,5-[…]]-2,5-diphenyl tetrazolium bromide) assay (Boehringer Mannheim Corp., Indianapolis, Ind.). Unless otherwise specified, all cell lines were obtained from the American Type Culture Collection (ATCC). Briefly, exponentially growing cells were seeded into a 96-well plate at a density of 2.5×10^4 cells/well and incubated for 36 hours at 37° C. prior to drug exposure. On the day of treatment, culture medium was carefully aspirated from the wells and replaced with fresh medium containing the indicated compound at concentrations ranging from 0.1 to 250 μM. Triplicate wells were used for each treatment.
(§2) Human leukemic cell lines (NALM-6, MOLT-3) glioblastoma cells (U373) and human breast tumor cell lines (BT20 and MDA-MB-231) were obtained from the American Type Culture Collection and maintained as a continuous cell line in Dulbecco's modified Eagles's medium supplemented with 10% fetal bovine serum and antibiotics.
(§3) The cells were incubated with the various compounds for 24-36 hours at 37° C. in a humidified 5% CO2 atmosphere. To each well, 10 μl of MTT (0.5 mg/ml final concentration) was added and the plates were incubated at 37° C. for 4 hours to allow MTT to form formazan crystals by reacting with metabolically active cells. The formazan crystals were solubilized overnight at 37° C. in a solution containing 10% SDS in 0.01 M HCl. The absorbence of each well was measured in a microplate reader (Labsystems) at 540 nm and a reference wavelength of […]. To translate the OD540 values into the number of live cells in each well, the OD540 values were compared to those on standard OD540 --versus--cell number curves generated for each cell line. The percent survival was calculated using the formula: [formula]
(§4) The IC50 values were calculated by non-linear regression analysis and are shown below in Tables 1-6.
For orientation: Formazan colour is commonly taken as a measure of viable cells.

In a further assay the test system is U-373 (glioblastoma). Kind of assay: MTT cytotoxicity assay, U-373. The assay is classed as cell-based. The conditions noted are these: Homo sapiens, U373 MG, 24-36 hours at 37° C., 0.1 to 250 μM. How it is done:
as §1, §2, §3, §4

Another assay has as its system Molt-3 (T-lineage ALL). Kind of assay: MTT cytotoxicity assay, Molt-3. It counts as cell-based, human. The conditions noted are these: Homo sapiens, MOLT-3, MTT, 24-36 hours at 37° C., 0.1 to 250 μM. The procedure: as §1, §2, §3, §4
Another assay deals with PC-3 (prostate cancer). The experiment in a line: MTT cytotoxicity assay, PC-3. The conditions noted are these: 24-36 hours at 37° C., 0.1 to 250 μM. The assay is classed as cell-based. How it is done: as §1, §3, §4
In another assay the test system is BT-20 (breast cancer). The experiment in a line: MTT cytotoxicity assay, BT-20. The conditions noted are these: Homo sapiens, 24-36 hours at 37° C., 0.1 to 250 μM. It counts as cell-based. How it is done: as §1, §2, §3, §4

For the molecule `CC(=O)N[C@@H](CSC/C=C(\C)CCC=C(C)C)C(=O)CCl` [HI-127, N-Ac-S-trans-geranyl-Cys chloromethyl ketone], the IC50 in the assay with Nalm-6 (B-lineage ALL), in the assay with U-373 (glioblastoma), in the assay with Molt-3 (T-lineage ALL), in the assay with PC-3 (prostate cancer) and in the assay with BT-20 (breast cancer) was greater than 100 µM in each case.

Consider `CC(=O)N[C@@H](CSCC=C(C)C)C(=O)CCl` [HI-128, N-Ac-S-(3-methyl-2-butenyl)-Cys chloromethyl ketone], for which the IC50 (usually the concentration that gives 50% inhibition) in the assay on Nalm-6 (B-lineage ALL) was 12.6 µM; in the assay on U-373 (glioblastoma) it was greater than 100 µM; with Molt-3 (T-lineage ALL) it was 7.9 µM; in the assay on PC-3 (prostate cancer) it was 47.8 µM; with BT-20 (breast cancer) it was 25.7 µM.

`CCCCCCCCCCCCSC[C@H](NC(=O)OC(C)(C)C)C(=O)CCl` [HI-129, N-Boc-S-dodecyl-Cys chloromethyl ketone]: the IC50 in the assay with Nalm-6 (B-lineage ALL) was 15.1 µM; with U-373 (glioblastoma), greater than 100 µM; with Molt-3 (T-lineage ALL), 15.5 µM; with PC-3 (prostate cancer), 64.6 µM; with BT-20 (breast cancer), 48.9 µM.

On to `CC(C)=CCC/C(C)=C/CC/C(C)=C/CSC[C@H](NC(=O)CNC(=O)OC(C)(C)C)C(=O)CCl` [HI-130, N-Boc-Gly-S-trans-trans-farnesyl-Cys chloromethyl ketone] (Boc-Gly-Cys(Farnesyl)-CH2Cl), for which the IC50 is 12.9 µM in the assay on Nalm-6 (B-lineage ALL); 71.3 µM with U-373 (glioblastoma); 17.5 µM with Molt-3 (T-lineage ALL); greater than 100 µM in the assay with PC-3 (prostate cancer); greater than 100 µM in the assay on BT-20 (breast cancer).

`CCCCCCCCCCCCSC[C@H](N)C(=O)CCl` [HI-252, S-Dodecyl-Cys chloromethyl ketone hydrochloride]: the IC50 was 17.7 µM in the assay with Nalm-6 (B-lineage ALL); greater than 100 µM in the assay on U-373 (glioblastoma); 12.5 µM in the assay with Molt-3 (T-lineage ALL); greater than 100 µM with PC-3 (prostate cancer); greater than 100 µM in the assay with BT-20 (breast cancer).

Consider `CCCCCCCCCCCCSC[C@H](NC(C)=O)C(=O)CSc1ccccc1` [HI-269, N-Ac-S-dodecyl-Cys-CH2 -SPh], for which the IC50 in the assay on Nalm-6 (B-lineage ALL), in the assay with U-373 (glioblastoma), in the assay with Molt-3 (T-lineage ALL), with PC-3 (prostate cancer) and with BT-20 (breast cancer) was greater than 100 µM in each case.

Take `CCCCCCCCCCCCSC[C@H](NC(C)=O)C(=O)CSCCC(=O)O` [HI-273, N-Ac-S-dodecyl-Cys-CH2 -S-CH2 CH2 CO2 H]: the IC50 was 44.4 µM in the assay on Nalm-6 (B-lineage ALL); greater than 100 µM with U-373 (glioblastoma); 50.3 µM in the assay with Molt-3 (T-lineage ALL); greater than 100 µM with PC-3 (prostate cancer); 20.1 µM in the assay with BT-20 (breast cancer).

`CCCCCCCCCCCCSC[C@H](NC(C)=O)C(=O)CSc1ccc2ccccc2c1` [HI-302, N-Ac-S-dodecyl-Cys-CH2 -S-2-naphthyl]: the concentration for half-maximal inhibition (IC50) in the assay with Nalm-6 (B-lineage ALL), with U-373 (glioblastoma), with Molt-3 (T-lineage ALL), in the assay on PC-3 (prostate cancer) and in the assay on BT-20 (breast cancer) was greater than 100 µM throughout.

As for `CCCCCCCCCCCCSC[C@H](NC(=O)OCC)C(=O)CCl` [HI-319], the half-maximal inhibitory concentration (IC50) was 77.6 µM with Nalm-6 (B-lineage ALL); greater than 100 µM in the assay with U-373 (glioblastoma); 84.2 µM with Molt-3 (T-lineage ALL); greater than 100 µM in the assay with PC-3 (prostate cancer); greater than 100 µM with BT-20 (breast cancer).

Turning to `CCCCCCCCCCCCSC[C@H](NC(=O)OCc1ccccc1)C(=O)CCl` [HI-320, N-Benzyloxycarbonyl-S-dodecylcysteine chloromethyl ketone], the IC50 with Nalm-6 (B-lineage ALL) is 13.5 µM; in the assay with U-373 (glioblastoma), greater than 100 µM; in the assay with Molt-3 (T-lineage ALL), greater than 100 µM; in the assay on PC-3 (prostate cancer), greater than 100 µM; in the assay on BT-20 (breast cancer), greater than 100 µM.

Consider `CCCCCCCCCCCCSC[C@H](NC(C)=O)C(=O)C=[N+]=[N-]` [HI-348, N-Ac-S-dodecyl-Cys diazomethyl ketone], for which the IC50 in the assay with Nalm-6 (B-lineage ALL) is 15.4 µM; with U-373 (glioblastoma), greater than 100 µM; in the assay with Molt-3 (T-lineage ALL), 22.9 µM; in the assay on PC-3 (prostate cancer), greater than 100 µM; with BT-20 (breast cancer), 97.9 µM.

Take `CC(=O)N[C@@H](CSC(C)(C)C)C(=O)CCl` [HI-349, N-Ac-S-t-butyl-cysteine chloromethyl ketone]: the IC50 in the assay with Nalm-6 (B-lineage ALL) was 71 µM; in the assay on U-373 (glioblastoma), greater than 100 µM; in the assay with Molt-3 (T-lineage ALL) it was 71.9 µM; in the assay with PC-3 (prostate cancer), greater than 100 µM; with BT-20 (breast cancer) it was greater than 100 µM.

With `CC(=O)N[C@@H](CSC(c1ccccc1)(c1ccccc1)c1ccccc1)C(=O)CCl` [HI-350, N-Ac-S-trityl-cysteine chloromethyl ketone], the IC50 with Nalm-6 (B-lineage ALL) was determined as 10 µM; with U-373 (glioblastoma), 87.1 µM; with Molt-3 (T-lineage ALL) it was 26.4 µM; with PC-3 (prostate cancer), 52.2 µM; with BT-20 (breast cancer), 88.8 µM.

Take `COc1ccc(CSC[C@H](NC(C)=O)C(=O)CCl)cc1` [HI-351, N-Ac-S-4-methoxybenzyl-cysteine chloromethyl ketone]: the IC50 in the assay with Nalm-6 (B-lineage ALL) was 60.2 µM; in the assay on U-373 (glioblastoma), 45.6 µM; in the assay on Molt-3 (T-lineage ALL), 4.75 µM; in the assay with PC-3 (prostate cancer), 43.8 µM; with BT-20 (breast cancer), 73.1 µM.

Turning to `CCCCCCCCCCCCSC[C@H](NC(C)=O)C(=O)CSC(c1ccccc1)(c1ccccc1)c1ccccc1` [HI-365], the IC50 is 93.1 µM in the assay on Nalm-6 (B-lineage ALL); greater than 100 µM in the assay on U-373 (glioblastoma); 97.3 µM in the assay with Molt-3 (T-lineage ALL); greater than 100 µM in the assay with PC-3 (prostate cancer); greater than 100 µM in the assay with BT-20 (breast cancer).

Turning to `CC(=O)N[C@@H](CSC/C=C(\C)CC/C=C(\C)CCC=C(C)C)C(=O)C=[N+]=[N-]` [HI-367, N-Ac-S-trans-trans-farnesyl-Cys diazomethyl ketone], the IC50 in the assay with Nalm-6 (B-lineage ALL) was 30.3 µM; in the assay with U-373 (glioblastoma), greater than 100 µM; in the assay on Molt-3 (T-lineage ALL), 32.2 µM; with PC-3 (prostate cancer) it was greater than 100 µM; in the assay on BT-20 (breast cancer), greater than 100 µM.

Turning to `CC(=O)N[C@@H](CSC/C=C(\C)CC/C=C(\C)CCC=C(C)C)C(=O)CCl` [HI-368, N-Ac-S-trans-trans-farnesyl-Cys chloromethyl ketone], the IC50 is 3 µM in the assay on Nalm-6 (B-lineage ALL); 61.3 µM in the assay with U-373 (glioblastoma); 1.4 µM with Molt-3 (T-lineage ALL); 26.8 µM in the assay on PC-3 (prostate cancer); 55.8 µM with BT-20 (breast cancer).

As to `CC(=O)N[C@@H](CSC(=O)OCc1ccccc1)C(=O)CCl` [HI-389, N-Ac-S-benzyloxycarbonyl-cysteine chloromethyl ketone], the IC50 in the assay on Nalm-6 (B-lineage ALL) came out at 1.2 µM; in the assay with U-373 (glioblastoma) it was 54.4 µM; in the assay on Molt-3 (T-lineage ALL) it was 3.5 µM; with PC-3 (prostate cancer) it was 23.4 µM; in the assay with BT-20 (breast cancer), 49.3 µM.

On to `CC(=O)N[C@@H](CSCc1ccc2ccccc2c1)C(=O)CCl` [HI-392, N-Ac-S-2-naphthylmethyl-cysteine chloromethyl ketone], for which the IC50 with Nalm-6 (B-lineage ALL) was 2.6 µM; in the assay on U-373 (glioblastoma), 41.8 µM; with Molt-3 (T-lineage ALL), 2.9 µM; in the assay on PC-3 (prostate cancer), 36.6 µM; in the assay with BT-20 (breast cancer), 40.4 µM.

In the case of `CCCCCCCCCCCCSC[C@H](NC(=O)OCC1c2ccccc2-c2ccccc21)C(=O)CCl` [HI-398, N-9-Fluorenylmethyloxycarbonyl-S-dodecyl-cysteine chloromethyl ketone], the 50% inhibitory concentration (IC50) was 25.7 µM with Nalm-6 (B-lineage ALL); greater than 100 µM in the assay with U-373 (glioblastoma); 32.3 µM in the assay with Molt-3 (T-lineage ALL); greater than 100 µM with PC-3 (prostate cancer); greater than 100 µM in the assay on BT-20 (breast cancer).

Turning to `CCCCCCCCCCCCSC[C@H](NC(C)=O)C(=O)CSc1c(F)c(F)c(F)c(F)c1F` [HI-399], the IC50 was 91.2 µM in the assay on Nalm-6 (B-lineage ALL); greater than 100 µM in the assay on U-373 (glioblastoma); 40.8 µM with Molt-3 (T-lineage ALL); 91.6 µM in the assay on PC-3 (prostate cancer); greater than 100 µM in the assay with BT-20 (breast cancer).
